Activity calls are given as the source filed them. The rule behind the calls is not given here.
Legend:
[1] = Metabolic stability in human liver microsomes assessed as half-life at 1 uM measured upto 120 mins in presence of NADPH by LC-MS/MS analysis; type: ADME, Microsome
[2] = system: Plasma; assay: Inhibition of SFFLLRN-NH2 peptide-induced platelet aggregation in human platelet rich plasma at 10 uM preincubated for 5 mins followed by peptide addition and measured after 5 mins by aggregometer; type: functional, cell-free
[3] = Oral bioavailability in male Sprague-Dawley rat at 2 mg/kg measured after 24 hrs by LC-MS/MS analysis; type: ADME, organism-based; settings: in vivo
[4] = Antagonist activity at […] expressed in HEK293/Galpha15 cells assessed as inhibition of 2-furoyl-LIGRLO-NH2-induced calcium mobilization incubated for 30 mins by FLIPR assay; type: cell-based; settings: HEK293/Galpha15, 0.5 h
[5] = system: Plasma; assay: Inhibition of U46619-induced platelet aggregation in human platelet rich plasma at 10 uM preincubated for 5 mins followed by U46619 addition and measured after 5 mins by aggregometer; type: functional, cell-free
[6] = AUC (0 to last) in male Sprague-Dawley rat at 0.5 mg/kg, iv measured after 24 hrs by LC-MS/MS analysis; type: ADME, organism-based; settings: in vivo
[7] = Half-life in male Sprague-Dawley rat at 2 mg/kg, po measured after 24 hrs by LC-MS/MS analysis; type: ADME, organism-based; settings: in vivo
[8] = Toxicity in male C57BL/6 mouse assessed as prolongation of bleeding time at 10 mg/kg, po measured after 1.5 hrs by tail bleeding assay; type: organism-based; settings: in vivo
[9] = Metabolic stability in rat liver microsomes assessed as half-life at 1 uM measured upto 120 mins in presence of NADPH by LC-MS/MS analysis; type: ADME, Microsome
[10] = system: Plasma; assay: Inhibition of thrombin-induced platelet aggregation in human platelet rich plasma at 10 uM preincubated for 5 mins followed by thrombin addition and measured after 5 mins by aggregometer; type: functional, cell-free; settings: time 10.0 min
[11] = Protein binding in human plasma at 10 uM incubated for 6 hrs by LC-MS/MS analysis; type: ADME, cell-free; settings: read-out: PPB (converted)
[12] = Tmax in male Sprague-Dawley rat at 2 mg/kg, po measured after 24 hrs by LC-MS/MS analysis; type: ADME, organism-based; settings: in vivo
[13] = system: Plasma; assay: Inhibition of collagen-induced platelet aggregation in human platelet rich plasma at 10 uM preincubated for 5 mins followed by collagen addition and measured after 5 mins by aggregometer; type: functional, cell-free
[14] = target: T1, Proteinase-activated receptor 4 (Homo sapiens, UniProt Q96RI0); assay: Antagonist activity at human PAR4 expressed in HEK293/Galpha15 cells assessed as inhibition of AYPGKF-NH2-induced calcium mobilization incubated for 30 mins by FLIPR assay; type: functional, cell-based
T1 sequence (Q96RI0 whole entry): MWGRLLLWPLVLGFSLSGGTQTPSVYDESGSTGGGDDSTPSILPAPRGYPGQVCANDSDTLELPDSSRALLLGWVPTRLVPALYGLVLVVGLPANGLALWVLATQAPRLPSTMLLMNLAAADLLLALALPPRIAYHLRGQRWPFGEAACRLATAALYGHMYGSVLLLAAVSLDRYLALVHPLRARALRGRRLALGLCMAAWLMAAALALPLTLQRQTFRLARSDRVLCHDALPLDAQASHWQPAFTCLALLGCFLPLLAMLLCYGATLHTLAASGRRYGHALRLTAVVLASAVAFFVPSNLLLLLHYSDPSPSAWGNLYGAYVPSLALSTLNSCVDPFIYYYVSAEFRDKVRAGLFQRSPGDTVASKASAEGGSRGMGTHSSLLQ

[15] = Clearance in male Sprague-Dawley rat at 0.5 mg/kg, iv measured after 24 hrs by LC-MS/MS analysis; type: ADME, organism-based; settings: in vivo
[16] = Cmax in male Sprague-Dawley rat at 2 mg/kg, po measured after 24 hrs by LC-MS/MS analysis; type: ADME, organism-based; settings: in vivo
[17] = system: Plasma; assay: Inhibition of ADP-induced platelet aggregation in human platelet rich plasma at 10 uM preincubated for 5 mins followed by ADP addition and measured after 5 mins by aggregometer; type: functional, cell-free
[18] = Clearance in male Sprague-Dawley rat at 2 mg/kg, po measured after 24 hrs by LC-MS/MS analysis; type: ADME, organism-based; settings: in vivo
[19] = Protein binding in rat plasma at 10 uM incubated for 6 hrs by LC-MS/MS analysis; type: ADME, cell-free; settings: read-out: PPB (converted)
[20] = system: Plasma; assay: Inhibition of […] peptide-induced platelet aggregation in human platelet rich plasma at 10 uM preincubated for 5 mins followed by peptide addition and measured after 5 mins by aggregometer; type: functional, cell-free; settings: time 10.0 min
[21] = Half-life in male Sprague-Dawley rat at 0.5 mg/kg, iv measured after 24 hrs by LC-MS/MS analysis; type: ADME, organism-based; settings: in vivo
[22] = target: T2, Proteinase-activated receptor 1 (Homo sapiens, UniProt P25116); assay: Antagonist activity at human PAR1 expressed in HEK293/Galpha15 cells assessed as inhibition of SFFLRR-NH2-induced calcium mobilization incubated for 30 mins by FLIPR assay; type: functional, cell-based
T2 sequence (P25116 whole entry): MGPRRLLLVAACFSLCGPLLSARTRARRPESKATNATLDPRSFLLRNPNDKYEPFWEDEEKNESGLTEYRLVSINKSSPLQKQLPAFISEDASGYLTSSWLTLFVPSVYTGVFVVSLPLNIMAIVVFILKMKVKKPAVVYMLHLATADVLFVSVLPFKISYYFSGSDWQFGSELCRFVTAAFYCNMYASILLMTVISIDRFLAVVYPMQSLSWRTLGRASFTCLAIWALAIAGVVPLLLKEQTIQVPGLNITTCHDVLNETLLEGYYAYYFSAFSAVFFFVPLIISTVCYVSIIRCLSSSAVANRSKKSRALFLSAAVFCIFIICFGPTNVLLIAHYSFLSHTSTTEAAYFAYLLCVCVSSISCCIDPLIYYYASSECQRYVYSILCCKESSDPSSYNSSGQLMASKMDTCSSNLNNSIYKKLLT

[23] = target: T3, Proteinase-activated receptor 4 (Homo sapiens) (UniProt Q96RI0); assay: Antagonist activity at PAR4 in human platelet rich plasma assessed as inhibition of gamma-PAR4 agonist peptide (AYPGKF-NH2)-induced platelet aggregation at 200 nM preincubated for 5 mins followed by peptide addition and measured after 5 mins by aggregometer relative to control; type: cell-based; settings: filed as antagonist, time 10.0 min
T3 sequence (whole entry): T1 sequence (Q96RI0 whole entry)

[24] = Cmax in male Sprague-Dawley rat at 0.5 mg/kg, iv measured after 24 hrs by LC-MS/MS analysis; type: ADME, organism-based; settings: in vivo
[25] = AUC (0 to last) in male Sprague-Dawley rat at 2 mg/kg, po measured after 24 hrs by LC-MS/MS analysis; type: ADME, organism-based; settings: in vivo
[26] = Cytotoxicity against HEK293 cells assessed as reduction in cell viability incubated for 48 hrs by MTT assay; type: toxicity, cell-based; settings: human
[27] = Tmax in male Sprague-Dawley rat at 0.5 mg/kg, iv measured after 24 hrs by LC-MS/MS analysis; type: ADME, organism-based; settings: in vivo
[28] = Half-life in po dosed male Sprague-Dawley rat measured after 24 hrs by LC-MS/MS analysis; type: ADME, organism-based; settings: in vivo
[29] = AUC (0 to last) in iv dosed male Sprague-Dawley rat measured after 24 hrs by LC-MS/MS analysis; type: ADME, organism-based; settings: in vivo
[30] = Tmax in po dosed male Sprague-Dawley rat measured after 24 hrs by LC-MS/MS analysis; type: ADME, organism-based; settings: in vivo
[31] = Clearance in iv dosed male Sprague-Dawley rat measured after 24 hrs by LC-MS/MS analysis; type: ADME, organism-based; settings: in vivo
[32] = Cmax in iv dosed male Sprague-Dawley rat measured after 24 hrs by LC-MS/MS analysis; type: ADME, organism-based; settings: in vivo
[33] = Tmax in iv dosed male Sprague-Dawley rat measured after 24 hrs by LC-MS/MS analysis; type: ADME, organism-based; settings: in vivo
[34] = Antagonist activity at PAR4 in mouse washed platelets assessed as inhibition of gamma-PAR4 agonist peptide (AYPGKF-NH2)-induced platelet aggregation preincubated for 5 mins followed by peptide addition and measured after 5 mins by aggregometer
[35] = Cmax in po dosed male Sprague-Dawley rat measured after 24 hrs by LC-MS/MS analysis; type: ADME, organism-based; settings: in vivo
[36] = Half-life in iv dosed male Sprague-Dawley rat measured after 24 hrs by LC-MS/MS analysis; type: ADME, organism-based; settings: in vivo
[37] = Oral bioavailability in male Sprague-Dawley rat measured after 24 hrs by LC-MS/MS analysis; type: ADME, organism-based; settings: in vivo
[38] = AUC (0 to last) in po dosed male Sprague-Dawley rat measured after 24 hrs by LC-MS/MS analysis; type: ADME, organism-based; settings: in vivo

| SMILES | half-life at 1 µM [1] [h] | IC50 [2] [µM] | bioavailability [3] [%] | IC50 [4] [µM] | IC50 [5] [µM] | AUC(0-t) at 24 h [6] [ng·h/mL] | half-life [7] [h] | Activity [8] | half-life at 1 µM [9] [h] | inhibition [10] | fraction unbound at 6 h, 10 µM [11] | Tmax [12] [h] | IC50 [13] [µM] | IC50 [14] [µM] | clearance [15] [mL/min/kg] | Cmax [16] [ng/mL] | IC50 [17] [µM] | IC50 [22] [µM] | inhibition [23] [%] | IC50 at 48 h [26] [µM] | further results |
| --- | --- | --- | --- | --- | --- | --- | --- | --- | --- | --- | --- | --- | --- | --- | --- | --- | --- | --- | --- | --- | --- |
| COc1ncc2c(-c3nc4cc(F)c5c(c4s3)C[C@H](COC(=O)Nc3cccc(C#N)c3)O5)cc(C)cc2n1 | 4.16 | > 10 | 50.5 | > 1 | > 10 | 636 | 5.16 | Non-toxic | 1.49 | Active | 0.0005 | 1.67 | > 10 | 0.00172 | 12.8 | 214 | > 10 | > 3.16 | 91.2 | > 20 | CL/F [18]: 25.4 mL/min/kg; fraction unbound at 6 h, 10 µM [19]: 0.0002; inhibition [20]: Active; half-life [21]: 5.13 h; Cmax [24]: 394 ng/mL; AUC(0-t) at 24 h [25]: 1220 ng·h/mL; Tmax [27]: 4.8 min |
| COc1ncc2c(-c3nc4cc(F)c5c(c4s3)C[C@H](COC(=O)Nc3cc(F)cc(C#N)c3)O5)cc(C)cc2n1 | 4.71 | > 10 | 27.3 | > 1 | > 10 | 808 | 7.05 | Non-toxic | 1.73 | Active | 0.0004 | 1 | > 10 | 0.00096 | 9.8 | 170 | > 10 | > 3.16 | 94.7 | > 20 | CL/F [18]: 37.7 mL/min/kg; fraction unbound at 6 h, 10 µM [19]: 0.0001; inhibition [20]: Active; half-life [21]: 6.89 h; Cmax [24]: 519 ng/mL; AUC(0-t) at 24 h [25]: 865 ng·h/mL; Tmax [27]: 4.8 min |
| COc1cc(Cl)c2nc(-c3cc(C)cc4c(=O)n(C)cnc34)sc2c1 | 0.71 |  |  | > 1 |  |  |  | Non-toxic | 0.532 |  |  |  |  |  |  |  |  | > 3.16 | 94.5 | > 20 | half-life [28]: 2.16 h; AUC(0-t) at 24 h [29]: 288 ng·h/mL; Tmax [30]: 2.83 h; clearance [31]: 57.7 mL/min/kg; Cmax [32]: 571 ng/mL; Tmax [33]: 4.8 min; IC50 [34]: 0.084 µM; Cmax [35]: 6.4 ng/mL; half-life [36]: 1.4 h; bioavailability [37]: 3.71%; AUC(0-t) at 24 h [38]: 32 ng·h/mL |
| COCc1ncc2c(-c3nc4cc(F)c(OCCOC(=O)Nc5cc(F)cc(C#N)c5)cc4s3)cc(C)cc2n1 | 0.747 | > 10 | 13.2 | > 1 | > 10 | 950 | 1.78 |  | 2.12 | Active | 0.001 | 1 | > 10 | 0.0056 | 9.5 | 146 | > 10 | > 3.16 | 90.3 | > 20 | CL/F [18]: 65.3 mL/min/kg; fraction unbound at 6 h, 10 µM [19]: 0.0011; inhibition [20]: Active; half-life [21]: 2.2 h; Cmax [24]: 944 ng/mL; AUC(0-t) at 24 h [25]: 488 ng·h/mL; Tmax [27]: 4.8 min |

— ChEMBL document CHEMBL6083259, “Discovery of quinazoline-benzothiazole derivatives as novel potent protease-activated receptor 4 antagonists with improved pharmacokinetics and low bleeding liability” (Eur J Med Chem, 2024)
